In ChEMBL document CHEMBL3593175, “Bicyclic [3.3.0]-Octahydrocyclopenta[c]pyrrolo Antagonists of Retinol Binding Protein 4: Potential Treatment of Atrophic Age-Related Macular Degeneration and Stargardt Disease” (J Med Chem, 2015):

What was measured:
[1] = target: T1, Retinol-binding protein 4 (Homo sapiens, UniProt P02753); experiment: Displacement of [3H]-retinol from RBP4 (unknown origin) by scintillation proximity assay
[2] = target: T1, Retinol-binding protein 4; experiment: Inhibition of retinol-induced interaction of bacterially expressed MBP-tagged RBP4 (unknown origin) with Eu3+ cryptate labeled TTR by HTRF assay
[3] = Metabolic stability in human liver microsomes assessed as compound remaining at 10 uM after 30 mins; assay type: ADME; settings: read-out: Stability
[4] = Metabolic stability in rat liver microsomes assessed as compound remaining at 10 uM after 30 mins; assay type: ADME; settings: read-out: Stability

SMILES | IC50 [1] | IC50 [2] | remaining at 0.5 h, 10 µM [3] | remaining at 0.5 h, 10 µM [4]
Cc1cc(C(=O)O)nc(N2C[C@H]3C[C@@H](c4cnccc4C(F)(F)F)C[C@H]3C2)n1 | 51.8 nM | 821 nM |  | 
Cc1cc(C(=O)O)nc(N2C[C@H]3C[C@@H](c4cccnc4C(F)(F)F)C[C@H]3C2)n1 | 31.1 nM | 719 nM |  | 
Cc1cc(C(=O)O)nc(N2CCC(c3ccccc3C(F)(F)F)CC2)n1 | 35.3 nM | 188 nM | 68% | 96%
Cc1cc(C(=O)O)nc(N2CCN(c3ccccc3C(F)(F)F)CC2)n1 | 89.5 nM | 511 nM | 18% | 63%

Compounds with a lower IC50 [1], results first:

IC50 [1] | IC50 [2] | remaining at 0.5 h, 10 µM [3] | remaining at 0.5 h, 10 µM [4] | SMILES
9.7 nM | 1400 nM | 0% | 0% | COC(=O)c1cc(C)nc(N2CCN(c3ccccc3C(F)(F)F)CC2)n1
4.1 nM | 132 nM |  |  | COC(=O)c1cc(C)nc(N2CCC(c3ccccc3C(F)(F)F)CC2)n1
